According to BindingDB's records for patent US12110299 (Yungjin Pharm., 2024):

Molecular target: Cyclin-dependent kinase 7 (Homo sapiens, UniProt P50613)
Test: CDK7 Kinase Activity Assay
Method: Representative compounds of the present invention were assayed in vitro for CDK7 kinase-inhibitory activities using ADP-Glo platform. In detail, CDK7 kinase-inhibitory activity was measured using recombinant purified human CDK7 kinase (ThermoFisher, PV3868) and ADP Glo kinase assays kit (Promega, V9102). CDK7 kinase was diluted with 1× kinase reaction buffer (40 mM Tris-C1, pH 7.5, 20 mM MgCl2, 0.1 mg/ml BSA and 50 [M DTT) and added to 96 well plates (final concentration of CDK7 per reaction: 50 ng). The compound was finally treated to be a 1% DMSO aqueous solution, and a substrate cocktail containing ATP (final concentration of 90 [M) and 0.2 μg/μl of MBP (Myelin basic protein) in a total of 25 μl of reaction mass was added to 96 well plates, thereby initiating an enzymatic reaction. After 2 hours of incubation (30° C.), equivalent volume (25 μl per reaction) of ADP Glo was added and incubated (30° C.) at room temperature for 60 minutes. […] The kinase activity was measured by chemiluminescence method according to ADP Glo Kanease Assay Kit instruction manual, and the CDK7-inhibitory activity of the compounds according to the present invention was calculated. The result analysis of each compound was performed using Microsoft Excel, and IC50 values were calculated by Prism software.

Chain of Cyclin-dependent kinase 7 (P50613 whole entry): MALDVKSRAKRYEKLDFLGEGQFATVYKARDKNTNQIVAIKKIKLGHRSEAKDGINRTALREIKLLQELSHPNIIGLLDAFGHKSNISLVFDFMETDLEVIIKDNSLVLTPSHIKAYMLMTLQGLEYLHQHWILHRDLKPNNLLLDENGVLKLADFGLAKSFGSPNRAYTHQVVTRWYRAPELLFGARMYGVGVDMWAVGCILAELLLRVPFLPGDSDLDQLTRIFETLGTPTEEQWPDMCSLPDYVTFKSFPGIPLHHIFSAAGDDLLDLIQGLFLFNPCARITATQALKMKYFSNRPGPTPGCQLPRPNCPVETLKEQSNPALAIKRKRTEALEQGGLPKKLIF

- IC50: 14 nM
SMILES: C[C@H](C(=O)Nc1ncc(Cl)s1)c1cccc(-c2cnc(NC(=O)/C=C/CN3CC4CC3CO4)cn2)c1 (stereo partly specified) [US12110299, Example 94]
